The target of one test is T1, Chk1 protein kinase (Homo sapiens, UniProt O14757).
T1 sequence (O14757 1-476): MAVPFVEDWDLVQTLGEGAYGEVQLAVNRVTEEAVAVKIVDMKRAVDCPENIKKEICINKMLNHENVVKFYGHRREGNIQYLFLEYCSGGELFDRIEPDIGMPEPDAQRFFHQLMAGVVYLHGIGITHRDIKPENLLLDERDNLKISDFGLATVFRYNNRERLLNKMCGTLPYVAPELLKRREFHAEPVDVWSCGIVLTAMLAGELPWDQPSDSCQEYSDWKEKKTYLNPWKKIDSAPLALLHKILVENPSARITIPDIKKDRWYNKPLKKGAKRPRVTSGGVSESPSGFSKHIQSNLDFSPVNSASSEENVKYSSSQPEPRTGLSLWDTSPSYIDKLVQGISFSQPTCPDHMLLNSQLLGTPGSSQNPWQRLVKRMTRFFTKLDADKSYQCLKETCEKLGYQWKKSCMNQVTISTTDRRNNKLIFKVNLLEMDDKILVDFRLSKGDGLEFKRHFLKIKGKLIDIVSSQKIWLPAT
In words: Chk1 enzyme inhibitory activity, ADP-Glo kit. It counts as biochemical. The following applies: bounds, unit μM. The protocol: Saurosporine is used as a positive control, the Chk1 enzyme inhibitory activity (IC50) was evaluated using the ADP-Glo kit. […] The phosphorylation process consumes ATP. After the reaction, ADP-Glo™ Reagent consumes the remaining ATP, wherein ADP produced during the reaction can be transformed to ATP by ADP-Glo Detection Reagent. ATP acts as a substrate for the Ultra-Glo™ luciferase catalytic reaction, producing an optical signal. The test compound was dissolved in DMSO to prepare a 10 mM stock solution and diluted to 12 different concentrations in a certain ratio for testing. 1 μL of the test compound and 2 μL of 2.5× Chk1 kinase were added to each well of a 384-well plate, and 2 μL of 1× buffer was added to the control group. After incubation for 10 min at room temperature, 2 μL of 2.5× substrate was added. Ater incubation for 1 h at 37° C., 5 μL. of ADP-Glo™ Reagent was added and the reaction was stopped before incubating again for 1 h at 37° C. 10 μL of ADP-Glo Detection Reagent was added before incubating for 30 min at 37° C., and three parallel wells were set for each sample. […] by luminescence fluorescence microplate reader, and data were calculated using GraphPad Prism 5 software to calculate IC50 values.

The subject of test [1] is human prostate cancer cell LnCAP. Kind of test: MTS in vitro proliferation inhibition, LnCAP. The class given is cell-based. The following applies: 72 hours, average of three experiments. The source says: (§1) Cell lines: human multiple myeloma cells RPMI 8226, human mantle cell lymphoma cells Mino, Jeko-1, human lymphoma cells Romas, human acute monocytic leukemia cells MV-4-11, human breast cancer cells MCF-7 Human lung cancer cell A549, human prostate cancer cell LnCAP, human gastric cancer cell BGC-823, human colon cancer cell HCT116, Colo205, and human ovarian cancer cell OVCAR-8. Experimental method: using MTS method for in vitro proliferation Inhibitory activity (IC50) of compounds against different tumor cell lines.
(§2) The cells in the logarithmic growth phase were trypsinized, counted, and seeded at a density of 1×10^4 cells/well in a 96-well plate at 100 μL per well before placing in a 37° C. incubator containing 5% CO2 overnight. Six concentration gradients were set for each compound, and three sets of duplicate wells were set for each concentration. After the addition, the cells were cultured for 72 hours, and 20 μL of MTS was added. After incubating for 2 hours at 37° C., the absorbance at 490 nm (L1) was measured with a SpectraMAX 340 microplate reader. The reference wavelength was 690 nm (L2), and the (L1-L2) value was plotted against the different concentrations of the inhibitor. The half inhibitory concentration IC50 was fitted by the formula.

Test [2] has as its system human colon cancer cell Colo205. In words: MTS in vitro proliferation inhibition, Colo205. The class given is cell-based. The following applies: COLO 205, 72 hours, average of three experiments.
Description: as §1, §2

The test system of test [3] is human acute monocytic leukemia cells MV-4-11. In words: MTS in vitro proliferation inhibition, MV-4-11. The class given is cell-based. The following applies: MV4-11, 72 hours, average of three experiments.
Description: as §1, §2

Test [4] has as its system human gastric cancer cell BGC-823. Kind of test: MTS in vitro proliferation inhibition, BGC-823. It counts as cell-based. The settings on record: 72 hours, average of three experiments.
Description: as §1, §2

For test [5], the system named is human mantle cell lymphoma cells Mino. Kind of test: MTS in vitro proliferation inhibition, Mino. The class given is cell-based. The following applies: 72 hours, average of three experiments.
Description: as §1, §2

Test [6] concerns human ovarian cancer cell OVCAR-8. Kind of test: MTS in vitro proliferation inhibition, OVCAR-8. It counts as cell-based. The settings on record: 72 hours, average of three experiments.
Description: as §1, §2

Test [7] deals with Human lung cancer cell A549. In words: MTS in vitro proliferation inhibition, A549. The following applies: 72 hours, average of three experiments. The class given is cell-based.
Description: as §1, §2

For test [8], the system named is human colon cancer cell HCT116. In words: MTS in vitro proliferation inhibition, HCT116. The class given is cell-based. The settings on record: HCT-116, 72 hours, average of three experiments.
Description: as §1, §2

Test [9] deals with human multiple myeloma cells RPMI 8226. In words: MTS in vitro proliferation inhibition, RPMI 8226. The following applies: 72 hours, average of three experiments, read-out: IC50(μM) RPMI8226. It counts as cell-based.
Description: as §1, §2

In test [10] the test system is human breast cancer cells MCF-7. In words: MTS in vitro proliferation inhibition, MCF-7. The class given is cell-based. The settings on record: MCF7, 72 hours, average of three experiments.
Description: as §1, §2

The subject of test [11] is human mantle cell lymphoma cells Jeko-1. In words: MTS in vitro proliferation inhibition, Jeko-1. The class given is cell-based. The settings on record: 72 hours, average of three experiments.
Description: as §1, §2

Test [12] has as its system human lymphoma cells Romas. Kind of test: MTS in vitro proliferation inhibition, Romas. The class given is cell-based. The settings on record: 72 hours, average of three experiments.
Description: as §1, §2

From patent US10822327B2, “2-substituted aromatic ring-pyrimidine derivative and preparation and application thereof” (ZHEJIANG UNIVERSITY, priority 2016, dated 2020) come the findings set out here.

What is called IC50 is the concentration needed to halve the response being measured.

Bounds are passed on as bounds.

At Chk1 protein kinase, `Cc1cc(Nc2ncc(-c3ccco3)c(NC3CCNCC3)n2)no1` [Compound 6, 5-(furan-2-yl)-N^2-(5-methyloxazol-3-yl)-N^4-(piperidin-4-yl)-2,4-diaminopyrimidine] registered an IC50 of over 10 µM.

In the case of `Cn1cc(-c2cnc(Nc3ccc(C#N)cn3)nc2NC2CCNCC2)cn1` [Compound 26, 5-(1-methyl-1H-pyrazol-4-yl)-N^2-(3-cyanopyridin-6-yl)-N^4-(piperidin-4-yl)-2,4-diaminopyrimidine], the half-inhibitory concentration (IC50) at Chk1 protein kinase was over 10 µM.

Compound `N#Cc1ccc(Nc2ncc(C(F)(F)F)c(NCC3CCNCC3)n2)cn1` [Compound 34, 5-trifluoromethyl-N^2-(2-cyanopyridin-5-yl)-N^4-(piperidin-4-methyl)-2,4-diaminopyrimidine] yielded an IC50 on Chk1 protein kinase of under 1 µM.

Turning to `Cc1cc(Nc2ncc(-c3cnn(C)c3)c(NC3CCNCC3)n2)n[nH]1` [Compound 1, 5-(1-methyl-1H-pyrazol-4-yl)-N^2-(3-methylpyrazol-5-yl)-N^4-(piperidin-4-yl)-2,4-diaminopyrimidine], the 50% inhibitory concentration (IC50) at Chk1 protein kinase was over 10 µM.

Turning to `N#Cc1ccc(Nc2ncc(C(F)(F)F)c(NC3CCNCC3)n2)cn1` [Compound 35, 5-trifluoromethyl-N^2-(2-cyanopyridin-5-yl)-N^4-(piperidin-4-yl)-2,4-diaminopyrimidine], the half-inhibitory concentration (IC50) at Chk1 protein kinase is under 1 µM.

Turning to `N#Cc1ccc(Nc2ncc(-c3ccccc3NCC3CCNCC3)cn2)cn1` [Compound 33, 5-(2-(piperidin-4-methyl)aminophenyl)-N-(2-cyanopyridin-5-yl)-2-aminopyrimidine], the IC50 on Chk1 protein kinase was over 10 µM.

On to `N#Cc1ccc(Nc2ncc(-c3ccco3)c(NC3CCNCC3)n2)cn1` [Compound 17, 5-(furan-2-yl)-N^2-(2-cyanopyridin-5-yl)-N^4-(piperidin-4-yl)-2,4-diaminopyrimidine], for which the IC50 stood at 1.44 µM in test [1]; 2.77 µM in test [2]; 0.044 µM in [3]; 3.17 µM in [4]; 0.708 µM in test [5]; 4.71 µM in test [6]. Further, the IC50 turned out to be 0.774 µM in test [7]; 2.68 µM in [8]; 3.34 µM in test [9]; 1.8 µM in test [10]; 0.342 µM in test [11]; 0.536 µM in [12].

On to `N#Cc1ccc(Nc2ncc(Br)cn2)cn1` [Compound 30, 5-bromo-N-(2-cyanopyridin-5-yl)-2-aminopyrimidine], for which the IC50 on Chk1 protein kinase was over 10 µM.

In turn, `Cc1cc(Nc2ncc(-c3cnn(C)c3)c(NC3CCNCC3)n2)no1` [Compound 2, 5-(1-methyl-1H-pyrazol-4-yl)-N^2-(5-methyloxazol-3-yl)-N^4-(piperidin-4-yl)-2,4-diaminopyrimidine] yielded an IC50 at Chk1 protein kinase of over 10 µM.

With `Cc1cc(Nc2ncc(-c3ccco3)c(NC3CCNCC3)n2)n[nH]1` [Compound 5, 5-(furan-2-yl)-N^2-(5-methylpyrazol-3-yl)-N^4-(piperidin-4-yl)-2,4-diaminopyrimidine], at Chk1 protein kinase, the concentration for half-maximal inhibition (IC50) was over 10 µM.

Take `Cn1cc(-c2cnc(Nc3cnc(C#N)cn3)nc2NC2CCNCC2)cn1` [Compound 27, 5-(1-methyl-1H-pyrazol-4-yl)-N^2-(2-cyanopyrazin-5-yl)-N^4-(piperidin-4-yl)-2,4-diaminopyrimidine]: at Chk1 protein kinase, the IC50 is over 10 µM.

On Chk1 protein kinase, `N#Cc1ccc(Nc2ncc(C(F)(F)F)c(N[C@@H]3CCCNC3)n2)cn1` [Compound 36, (R)-5-trifluoromethyl-N^2-(2-cyanopyridin-5-yl)-N^4-(piperidin-3-yl)-2,4-diaminopyrimidine] gave an IC50 of under 1 µM.

In the case of `Cn1cc(-c2cnc(Nc3ccc(C#N)nc3)nc2N[C@H]2CCCNC2)cn1` [Compound 21, (S)-5-(1-methyl-1H-pyrazol-4-yl)-N^2-(2-cyanopyridin-5-yl)-N^4-(piperidin-3-yl)-2,4-diaminopyrimidine], the half-inhibitory concentration (IC50) in [1] amounted to 0.842 µM; in [2], 1.54 µM; in test [3] it was 0.035 µM; in test [4] it was 2.11 µM; in test [5] it was 0.608 µM; in [6], 3.24 µM. In addition, the IC50 in test [7] came out at 1.02 µM; in test [8] it was 1.39 µM; in test [9] it was 3.6 µM; in [10] it was 2.56 µM; in test [11], 0.253 µM; in test [12] it was 0.401 µM.

For `Cc1cc(Nc2ncc(-c3cccs3)c(NC3CCNCC3)n2)n[nH]1` [Compound 3, 5-(thien-2-yl)-N^2-(5-methylpyrazol-3-yl)-N^4-(piperidin-4-yl)-2,4-diaminopyrimidine], the 50% inhibitory concentration (IC50) against Chk1 protein kinase is over 10 µM.

On Chk1 protein kinase, `N#Cc1ccc(Nc2ncc(-c3ccccc3N)cn2)cn1` [Compound 31, 5-(2-aminophenyl)-N-(2-cyanopyridin-5-yl)-2-aminopyrimidine] came in with an IC50 of over 10 µM.

On Chk1 protein kinase, `Cc1cc(Nc2ncc(-c3cccs3)c(NC3CCNCC3)n2)no1` [Compound 4, 5-(thien-2-yl)-N^2-(5-methyloxazol-3-yl)-N^4-(piperidin-4-yl)-2,4-diaminopyrimidine] displayed a half-maximal inhibitory concentration (IC50) of over 10 µM.
